Numbered stars: 1 amine (or outer) side, 2 acyl side, 3 side chain; on linkers, the order of the positions; unused ones are H or OH. Bridge positions count the residues as written; N and C are the ends. Side chains are listed from the residue outwards. Peptide text beside a SMILES is read from it. * marks the point of attachment. C20 diacid = O=C(O)CCCCCCCCCCCCCCCCCCC(=O)*; γGlu = O=C(O)[C@H](CCC(=O)[*:2])N[*:1]

In one assay the target is T1, human amylin receptor (Homo sapiens, UniProt O60896+P30988).
T1 construct: expressed in transfected cells
T1 sequence (P30988 25-474): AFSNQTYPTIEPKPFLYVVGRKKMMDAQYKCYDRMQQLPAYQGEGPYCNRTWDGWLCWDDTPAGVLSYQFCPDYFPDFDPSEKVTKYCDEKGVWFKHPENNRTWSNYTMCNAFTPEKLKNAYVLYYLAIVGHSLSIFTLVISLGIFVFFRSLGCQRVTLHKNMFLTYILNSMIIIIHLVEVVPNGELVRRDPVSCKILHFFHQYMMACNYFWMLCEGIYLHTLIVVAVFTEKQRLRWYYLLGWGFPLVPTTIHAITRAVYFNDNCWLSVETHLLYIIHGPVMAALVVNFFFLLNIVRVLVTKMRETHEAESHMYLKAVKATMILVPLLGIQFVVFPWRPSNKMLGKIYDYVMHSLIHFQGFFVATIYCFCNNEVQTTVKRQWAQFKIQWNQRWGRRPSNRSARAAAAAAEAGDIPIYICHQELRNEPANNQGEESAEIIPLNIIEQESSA
T1 sequence (O60896 24-148 partner): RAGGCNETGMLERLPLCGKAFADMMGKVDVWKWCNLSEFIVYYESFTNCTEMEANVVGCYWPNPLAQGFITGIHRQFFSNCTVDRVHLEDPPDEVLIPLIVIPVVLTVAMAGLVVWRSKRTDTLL
As to the kind of experiment: Assay (V) binding to the human amylin receptor (SPA, 125I-rat amylin). As for the experimental part: The binding assay was performed using scintillation proximity assay (SPA) beads (RPNQ0001) from PerkinElmer and cell membranes from the Amylin 3(a)/CRE-luc cells (as described in Assay (II)) were used. Membranes were prepared in the following way; the cells were rinsed with PBS and incubated with Versene for approximately 5 min before harvesting. The cells were flushed with PBS and the cell-suspension was centrifuged for 5 min at 1000 rpm. […] The resulting pellet was resuspended in buffer 2 and protein concentration was measured (BCA protein Assay, Pierce). The homogenate was kept cold during the whole procedure. The membranes were kept at −80° C. until use. The assay was performed in a 384 well Optiplate (PerkinElmer) in a total volume of 40 ul. Membranes were mixed with SPA beads. Final concentration of membranes 35 ng/μL final and SPA beads was 0.05 mg/well. Test-compounds were dissolved in DMSO and further diluted in assay buffer (50 mM Hepes, pH 7.4, 1 mM CaCl2, 5 mM MgCl2, 0.1% OA and 0.02% Tween20). […] Samples were analyzed on TopCounter™ (Packard). The IC50 was calculated using (one site binding competition analysis) GraphPad Prism5 as a measure of receptor affinity.

Assay [1] addresses T2, human amylin receptor (amylin 3(a) receptor: human calcitonin receptor + RAMP-3) (Homo sapiens, UniProt O60896+P30988).
T2 construct: expressed in transfected cells
T2 sequence (P30988 25-474): T1 sequence (P30988 25-474)
T2 sequence (O60896 24-148 partner): T1 sequence (O60896 24-148 partner)
As to the kind of experiment: Assay (II)a functional assay, human amylin receptor (CRE luciferase, BHK cells). It counts as cell-based.

The mark [2] stands for this setting: Table 7b, human calcitonin receptor binding IC50 divided by human amylin receptor binding IC50.
The mark [3] stands for this setting: Table 7c, human calcitonin receptor binding IC50 divided by human amylin receptor binding IC50.
Setting [4] is: human binding ratio, included for comparison.
[5] abbreviates: Table 6, human functional selectivity (hCTR EC50 / hAmylin-R EC50).
Setting [6] is: Table 6a, human functional selectivity (hCTR EC50 / hAmylin-R EC50), at least 5.
Where [7] appears, read: Table 6j, hCTR funct. EC50 / hAmylin-R funct. EC50.
Setting [8] is: Table 6k, hCTR funct. EC50 / hAmylin-R funct. EC50.

Take `CC[C@H](C)[C@H](NC(=O)[C@H](C)NC(=O)CNC(=O)[C@H](Cc1ccccc1)NC(=O)[C@H](CC(N)=O)NC(=O)[C@@H]1CCCN1C(=O)[C@H](CO)NC(=O)[C@H](CO)NC(=O)[C@H](Cc1c[nH]cn1)NC(=O)[C@H](CCCNC(=N)N)NC(=O)[C@H](CC(C)C)NC(=O)[C@H](Cc1ccccc1)NC(=O)[C@H](CC(N)=O)NC(=O)[C@H](C)NC(=O)[C@H](CC(C)C)NC(=O)[C@H](CCCNC(=N)N)NC(=O)[C@H](CCC(N)=O)NC(=O)[C@@H](NC(=O)[C@H](C)NC(=O)[C@@H]1CSSC[C@H](NC(=O)[C@@H](N)CCCCNC(=O)COCCOCCNC(=O)CC[C@H](NC(=O)CCCCCCCCCCCCCCCCCCC(=O)O)C(=O)O)C(=O)N[C@@H](CC(N)=O)C(=O)N[C@@H]([C@@H](C)O)C(=O)N[C@@H](C)C(=O)N[C@@H]([C@@H](C)O)C(=O)N1)[C@@H](C)O)C(=O)N1CCC[C@H]1C(=O)N[C@@H](CO)C(=O)N[C@@H](CO)C(=O)N[C@H](C(=O)N[C@@H](CC(N)=O)C(=O)N[C@H](C(=O)NCC(=O)N[C@@H](CO)C(=O)N[C@@H](CCCNC(=N)N)C(=O)N[C@H](C(=O)N[C@@H](Cc1ccc(O)cc1)C(N)=O)[C@@H](C)O)C(C)C)[C@@H](C)O` [Example 38]: the IC50 at human amylin receptor (human amylin receptor membranes, SPA, read-out: hAmylin-R bind IC50) was found to be 0.249 nM.

`CC[C@H](C)[C@H](NC(=O)[C@H](C)NC(=O)CNC(=O)[C@H](Cc1ccccc1)NC(=O)[C@H](CC(N)=O)NC(=O)[C@@H]1CCCN1C(=O)[C@H](CO)NC(=O)[C@H](CO)NC(=O)[C@H](Cc1c[nH]cn1)NC(=O)[C@H](CCCNC(=N)N)NC(=O)[C@H](CC(C)C)NC(=O)[C@H](Cc1ccccc1)NC(=O)[C@H](CC(N)=O)NC(=O)[C@H](C)NC(=O)[C@H](CC(C)C)NC(=O)[C@H](CCCNC(=N)N)NC(=O)[C@H](CCC(N)=O)NC(=O)[C@@H](NC(=O)[C@H](C)NC(=O)[C@@H]1CSSC[C@H](NC(=O)[C@H](CCCCN)NC(=O)CC[C@H](NC(=O)CCCCCCCCCCCCCCCCCCC(=O)O)C(=O)O)C(=O)N[C@@H](CC(N)=O)C(=O)N[C@@H]([C@@H](C)O)C(=O)N[C@@H](C)C(=O)N[C@@H]([C@@H](C)O)C(=O)N1)[C@@H](C)O)C(=O)N1CCC[C@H]1C(=O)N[C@@H](CO)C(=O)N[C@@H](CO)C(=O)N[C@H](C(=O)N[C@@H](CC(N)=O)C(=O)N[C@H](C(=O)NCC(=O)N[C@@H](CCCNC(=N)N)C(=O)N[C@@H](CC(N)=O)C(=O)N[C@H](C(=O)N[C@@H](Cc1ccc(O)cc1)C(N)=O)[C@@H](C)O)C(C)C)[C@@H](C)O` [Example 39] ({C20 diacid-γGlu}-KCNTATCATQRLANFLRHSSPNFGAIPSSTNVGRNTY-NH2; disulfide 2-7): the “Ratio hCT/hAmylin binding” value at human amylin receptor (setting [2]), on human amylin receptor (setting [3]) and on human amylin receptor (setting [4]) was 29.0 throughout.

In the case of `CC[C@H](C)[C@H](NC(=O)[C@H](C)NC(=O)CNC(=O)[C@H](Cc1ccccc1)NC(=O)[C@H](CC(N)=O)NC(=O)[C@@H]1CCCN1C(=O)[C@H](CO)NC(=O)[C@H](CO)NC(=O)[C@H](Cc1c[nH]cn1)NC(=O)[C@H](CCCNC(=N)N)NC(=O)[C@H](CC(C)C)NC(=O)[C@H](Cc1ccccc1)NC(=O)[C@H](Cc1c[nH]cn1)NC(=O)[C@H](C)NC(=O)[C@H](CC(C)C)NC(=O)[C@H](CCCNC(=N)N)NC(=O)[C@H](CCC(N)=O)NC(=O)[C@@H](NC(=O)[C@H](C)NC(=O)[C@@H]1CSSC[C@H](NC(=O)[C@@H](N)CCCCNC(=O)CC[C@H](NC(=O)CCCCCCCCCCCCCCCCCCC(=O)O)C(=O)O)C(=O)N[C@@H](CC(N)=O)C(=O)N[C@@H]([C@@H](C)O)C(=O)N[C@@H](C)C(=O)N[C@@H]([C@@H](C)O)C(=O)N1)[C@@H](C)O)C(=O)N1CCC[C@H]1C(=O)N[C@@H](CO)C(=O)N[C@@H](CO)C(=O)N[C@H](C(=O)N1CCC[C@H]1C(=O)N[C@H](C(=O)NCC(=O)N[C@@H](CO)C(=O)N[C@@H](CC(N)=O)C(=O)N[C@H](C(=O)N[C@@H](Cc1ccc(O)cc1)C(N)=O)[C@@H](C)O)C(C)C)[C@@H](C)O` [Example 62] (H-K([γGlu-C20 diacid])CNTATCATQRLAHFLRHSSPNFGAIPSSTPVGSNTY-NH2; disulfide 2-7; N-terminus assumed), the “Ratio hCT/hAmylin binding” value at human amylin receptor (setting [2]), at human amylin receptor (setting [3]) and on human amylin receptor (setting [4]) was 63.0 each time.

Regarding `CC[C@H](C)[C@H](NC(=O)[C@H](C)NC(=O)CNC(=O)[C@H](Cc1ccccc1)NC(=O)[C@H](CC(N)=O)NC(=O)[C@@H]1CCCN1C(=O)[C@H](CO)NC(=O)[C@H](CO)NC(=O)[C@H](Cc1c[nH]cn1)NC(=O)[C@H](CCCNC(=N)N)NC(=O)[C@H](CC(C)C)NC(=O)[C@H](Cc1ccccc1)NC(=O)[C@H](CCC(=O)O)NC(=O)[C@H](C)NC(=O)[C@H](CC(C)C)NC(=O)[C@H](CCCNC(=N)N)NC(=O)[C@H](CCC(N)=O)NC(=O)[C@@H](NC(=O)[C@H](C)NC(=O)[C@@H]1CSSC[C@H](NC(=O)[C@@H](N)CCCCNC(=O)CC[C@H](NC(=O)CCCCCCCCCCCCCCCCCCC(=O)O)C(=O)O)C(=O)N[C@@H](CC(N)=O)C(=O)N[C@@H]([C@@H](C)O)C(=O)N[C@@H](C)C(=O)N[C@@H]([C@@H](C)O)C(=O)N1)[C@@H](C)O)C(=O)N1CCC[C@H]1C(=O)N[C@@H](CO)C(=O)N[C@@H](CO)C(=O)N[C@H](C(=O)N[C@@H](CC(N)=O)C(=O)N[C@H](C(=O)NCC(=O)N[C@@H](CCCNC(=N)N)C(=O)N[C@@H](CCC(=O)O)C(=O)N[C@H](C(=O)N[C@@H](Cc1ccc(O)cc1)C(N)=O)[C@@H](C)O)C(C)C)[C@@H](C)O` [Example 108] (H-K([γGlu-C20 diacid])CNTATCATQRLAEFLRHSSPNFGAIPSSTNVGRETY-NH2; disulfide 2-7 (inferred); N-terminus and C-terminus assumed), the “Ratio hCT/hAmylin funct.” value in assay [1] (setting [5]) is given as 6.5; in assay [1] (setting [6]) it was 6.5; in assay [1] (Table 6i, hCTR funct. EC50 / hAmylin-R funct. EC50), 6.5; in assay [1] (setting [7]), 6.5; in assay [1] (setting [8]) it was 6.5.

In the case of `CC[C@H](C)[C@H](NC(=O)[C@H](C)NC(=O)CNC(=O)[C@H](Cc1ccccc1)NC(=O)[C@H](CC(N)=O)NC(=O)[C@@H]1CCCN1C(=O)[C@H](CO)NC(=O)[C@H](CO)NC(=O)[C@H](Cc1c[nH]cn1)NC(=O)[C@H](CCCNC(=N)N)NC(=O)[C@H](CC(C)C)NC(=O)[C@H](Cc1ccccc1)NC(=O)[C@H](CO)NC(=O)[C@H](C)NC(=O)[C@H](CC(C)C)NC(=O)[C@H](CCCNC(=N)N)NC(=O)[C@H](CCC(N)=O)NC(=O)[C@@H](NC(=O)[C@H](C)NC(=O)[C@@H]1CSSC[C@H](NC(=O)[C@@H](N)CCCCNC(=O)CC[C@H](NC(=O)CC[C@H](NC(=O)CCCCCCCCCCCCCCCCCCC(=O)O)C(=O)O)C(=O)O)C(=O)N[C@@H](CC(N)=O)C(=O)N[C@@H]([C@@H](C)O)C(=O)N[C@@H](C)C(=O)N[C@@H]([C@@H](C)O)C(=O)N1)[C@@H](C)O)C(=O)N1CCC[C@H]1C(=O)N[C@@H](CO)C(=O)N[C@@H](CO)C(=O)N[C@H](C(=O)N[C@@H](CC(N)=O)C(=O)N[C@H](C(=O)NCC(=O)N1CCC[C@H]1C(=O)N[C@@H](CCC(=O)O)C(=O)N[C@H](C(=O)N[C@@H](Cc1ccc(O)cc1)C(N)=O)[C@@H](C)O)C(C)C)[C@@H](C)O` [Example 120] (H-K([γGlu-γGlu-C20 diacid])CNTATCATQRLASFLRHSSPNFGAIPSSTNVGPETY-NH2; disulfide 2-7 (inferred); N-terminus and C-terminus assumed), the “Ratio hCT/hAmylin funct.” value in assay [1] (setting [5]), in assay [1] (setting [6]), in assay [1] (setting [7]) and in assay [1] (setting [8]) was 8.1 each time.
